Common to all, as to type: cell-based
Assay [1] has as its system human dermal fibroblasts from Huntington's patients. Description: Rescue of BSO-stressed fibroblasts from Huntington's patients (screen as Example A). The following applies: Fibroblast, BSO-stressed Huntington's fibroblasts (GM 04281), less than about 150 nM, read-out: EC50, protection against Huntington's. Here is the method:
(§1) A culture with FRDA fibroblasts was started from a 1 ml vial with approximately 500,000 cells stored in liquid nitrogen. Cells were propagated in 10 cm cell culture dishes by splitting every third day in a ratio of 1:3 until nine plates were available. Once confluent, fibroblasts were harvested. For 54 micro titer plates (96 well-MTP) a total of 14.3 million cells (passage eight) were re-suspended in 480 ml medium, corresponding to 100 μl medium with 3,000 cells/well. The remaining cells were distributed in 10 cm cell culture plates (500,000 cells/plate) for propagation. The plates were incubated overnight at 37° C. in an atmosphere with 95% humidity and 5% CO2 to allow attachment of the cells to the culture plate.
(§2) MTP medium (243 μl) was added to a well of the microtiter plate. The test compounds were unfrozen, and 7.5 μl of a 5 mM stock solution was dissolved in the well containing 243 μl medium, resulting in a 150 μM master solution. Serial dilutions from the master solution were made. The period between the single dilution steps was kept as short as possible (generally less than 1 second).
(§3) Plates were kept overnight in the cell culture incubator. The next day, 10 μl of a 10 mM BSO solution were added to the wells, resulting in a 1 mM final BSO concentration. Forty-eight hours later, three plates were examined under a phase-contrast microscope to verify that the cells in the 0% control (wells E1-H1) were clearly dead. The medium from all plates was discarded, and the remaining liquid was removed by gently tapping the plate inversed onto a paper towel.
(§4) 100 μl of PBS containing 1.2 μM Calcein AM were then added to each well. The plates were incubated for 50-70 minutes at room temperature. After that time the PBS was discarded, the plate gently tapped on a paper towel and fluorescence (excitation/emission wavelengths of 485 nm and 525 nm, respectively) was read on a Gemini fluorescence reader. Data was imported into Microsoft Excel (EXCEL is a registered trademark of Microsoft Corporation for a spreadsheet program) and used to calculate the EC50 concentration for each compound.
Compounds of the invention were tested using the screen as described in Example A, but substituting FRDA cells with Huntington's cells obtained from the Coriell Cell Repositories (Camden, N.J.; repository number GM 04281). The compounds were tested for their ability to rescue human dermal fibroblasts from Huntington's patients from oxidative stress.

Assay [2] deals with human dermal fibroblasts from LHON patients. Description: Rescue of BSO-stressed fibroblasts from LHON patients (screen as Example A). The following applies: Fibroblast, BSO-stressed LHON fibroblasts (GM03858), less than about 150 nM, read-out: EC50, protection against LHON. The procedure: as §1, §2, §3, §4
Compounds of the invention were screened as described in Example A, but substituting FRDA cells with Leber's Hereditary Optic Neuropathy (LHON) cells obtained from the Coriell Cell Repositories (Camden, N.J.; repository number GM03858). The compounds were tested for their ability to rescue human dermal fibroblasts from LHON patients from oxidative stress.

Assay [3] has as its system Human dermal fibroblasts from Friedreich's Ataxia patients. Description: Rescue of BSO-stressed FRDA fibroblasts (Calcein AM viability). Particulars: BSO-stressed FRDA fibroblasts (GM04078), less than about 150 nM, read-out: EC50, protection against FRDA. The procedure: An initial screen was performed to identify compounds effective for the amelioration of redox disorders. Test samples, 4 reference compounds (Idebenone, decylubiquinone, Trolox and α-tocopherol acetate), and solvent controls were tested for their ability to rescue FRDA fibroblasts stressed by addition of L-buthionine-(S,R)-sulfoximine (BSO), as described in Jauslin et al., Hum. Mol. Genet. 11(24):3055 (2002), Jauslin et al., FASEB J. 17:1972-4 (2003), and International Patent Application WO 2004/003565. […] This specific BSO-mediated cell death can be prevented by administration of antioxidants or molecules involved in the antioxidant pathway, such as α-tocopherol, selenium, or small molecule glutathione peroxidase mimetics. However, antioxidants differ in their potency, i.e. the concentration at which they are able to rescue BSO-stressed FRDA fibroblasts.
MEM (a medium enriched in amino acids and vitamins, catalog no. 1-31F24-I) and Medium 199 (M199, catalog no. 1-21F22-I) with Earle's Balanced Salts, without phenol red, were purchased from Bioconcept. Fetal Calf Serum was obtained from PAA Laboratories. Basic fibroblast growth factor and epidermal growth factor were purchased from PeproTech. Penicillin-streptomycin-glutamine mix, L-buthionine (S,R)-sulfoximine, (+)-α-tocopherol acetate, decylubiquinone, and insulin from bovine pancreas were purchased from Sigma. Trolox (6-hydroxy-2,5,7,8-tetramethylchromane-2-carboxylic acid) was obtained from Fluka. Idebenone was obtained from Chemo Iberica. Calcein AM was purchased from Molecular Probes. Cell culture medium was made by combining 125 ml M199 EBS, 50 ml Fetal Calf Serum, 100 U/ml penicillin, 100 μg/ml streptomycin, 2 mM glutamine, 10 μg/ml insulin, 10 ng/ml EGF, and 10 ng/ml bFGF; MEM EBS was added to make the volume up to 500 ml. A 10 mM BSO solution was prepared by dissolving 444 mg BSO in 200 ml of medium with subsequent filter-sterilization. During the course of the experiments, this solution was stored at +4° C. The cells were obtained from the Coriell Cell Repositories (Camden, N.J.; repository number GM04078) and grown in 10 cm tissue culture plates. Every third day, they were split at a 1:3 ratio.
The test samples were supplied in 1.5 ml glass vials. The compounds were diluted with DMSO, ethanol or PBS to result in a 5 mM stock solution. Once dissolved, they were stored at −20° C. Reference antioxidants (Idebenone, decylubiquinone, α-tocopherol acetate and trolox) were dissolved in DMSO.
Test samples were screened according to the following protocol:
as §1, §2
Plates were kept overnight in the cell culture incubator. The next day, 10 μl of a 10 mM BSO solution were added to the wells, resulting in a 1 mM final BSO concentration. Forty-eight hours later, three plates were examined under a phase-contrast microscope to verify that the cells in the 0% control (wells E1-H1) were clearly dead. […]

Where only a bound is given, the exact number is not on record here.

Take `CC1=C(C)C(=O)C(CCNC(=O)NCCN2CCOCC2)=C(C)C1=O` [1-(2-morpholinoethyl)-3-(2-(2,4,5-trimethyl-3,6-dioxocyclohexa-1,4-dienyl)ethyl)urea]: the concentration for a half-maximal effect (EC50) in assay [1], in assay [2] and in assay [3] was below 150 nM each time.

As to `CCNC(=O)NCCC1=C(CCC(C)(C)O)C(=O)C(C)=C(C)C1=O` [1-Ethyl-3-(2(2-(3-hydroxy-3-methylbutyl)-4,5-dimethyl-3,6-dioxocyclohexa-1,4-dienyl)ethyl)urea], the EC50 in assay [1], in assay [2] and in assay [3] was below 150 nM each time.

Take `CC1=C(C)C(=O)C(CCN(C)C(=O)Cc2ccc(Cl)cc2)=C(C)C1=O` [2-(4-chlorophenyl)-N-methyl-N-(2-(2,4,5-trimethyl-3,6-dioxocyclohexa-1,4-dienyl)ethyl)acetamide]: the half-maximal effective concentration (EC50) in assay [1], in assay [2] and in assay [3] was below 150 nM throughout.

With `CC1=C(C)C(=O)C(CCC(C)C(=O)NCCc2ccccc2)=C(C)C1=O` (stereo not drawn) [2-methyl-N-phenethyl-4-(2,4,5-trimethyl-3,6-dioxocyclohexa-1,4-dienyl)butanamide], the EC50 in assay [1], in assay [2] and in assay [3] was below 150 nM in each case.

As to `CC1=C(C)C(=O)C(CCN(C)C(=O)NCCN(C)C)=C(C)C1=O` [3-(2-(dimethylamino)ethyl)-1-methyl-1-(2-(2,4,5-trimethyl-3,6-dioxocyclohexa-1,4-dienyl)ethyl)urea], the EC50 in assay [1], in assay [2] and in assay [3] was below 150 nM in each case.

On to `CC(=O)c1ccc(C(=O)NCCC2=C(C)C(=O)C(C)=C(C)C2=O)cc1` [4-acetyl-N-(2-(2,4,5-trimethyl-3,6-dioxocyclohexa-1,4-dienyl)ethyl)benzamide], for which the EC50 in assay [1], in assay [2] and in assay [3] was below 150 nM throughout.

`CC(=O)N1CCN(C(=O)NCCC2=C(C)C(=O)C(C)=C(C)C2=O)CC1` [4-acetyl-N-(2-(2,4,5-trimethyl-3,6-dioxocyclohexa-1,4-dienyl)ethyl)piperazine-1-carboxamide]: the EC50 in assay [1] and in assay [2] was below 150 nM throughout.

As to `CC1=C(C)C(=O)C(CCNC(=O)c2ccc(C)cc2)=C(C)C1=O` [4-methyl-N-(2-(2,4,5-trimethyl-3,6-dioxocyclohexa-1,4-dienyl)ethyl)benzamide], the EC50 in assay [1], in assay [2] and in assay [3] was below 150 nM throughout.

On to `CC1=C(C)C(=O)C(CCNC(=O)N2CCN(C)CC2)=C(C)C1=O` [4-methyl-N-(2-(2,4,5-trimethyl-3,6-dioxocyclohexa-1,4-dienyl)ethyl)piperazine-1-carboxamide], for which the half-maximal effective concentration (EC50) in assay [1], in assay [2] and in assay [3] was below 150 nM each time.

Consider `CC1=C(C)C(=O)C(CCC(C)(C)O)=C(CCNC(=O)CCCCC2CCSS2)C1=O` (stereo not drawn) [5-(1,2-Dithiolan-3-yl)-N-(2-(2-(3-hydroxy-3-methylbutyl)-4,5-dimethyl-3,6-dioxocyclohexa-1,4-dienyl)ethyl)pentanamide], for which the EC50 in assay [1], in assay [2] and in assay [3] was below 150 nM each time.

`CC1=C(C)C(=O)C(CCNC(=O)c2ccccc2)=C(C)C1=O` [N-(2-(2,4,5-trimethyl-3,6-dioxocyclohexa-1,4-dienyl)ethyl)benzamide]: the EC50 in assay [1], in assay [2] and in assay [3] was below 150 nM in each case.

On to `CCCCCC(=O)NCCC1=C(CCC(C)(C)O)C(=O)C(C)=C(C)C1=O` [N-(2-(2-(3-Hydroxy-3-methylbutyl)-4,5-dimethyl-3,6-dioxocyclohexa-1,4-dienyl)ethyl)hexanamide], for which the EC50 in assay [1] and in assay [2] was below 150 nM each time.

As to `CC1=C(C)C(=O)C(CCC(C)(C)O)=C(CCNS(=O)(=O)c2ccc(C)cc2)C1=O` [N-(2-(2-(3-hydroxy-3-methylbutyl)-4,5-dimethyl-3,6-dioxocyclohexa-1,4-dienyl)ethyl)-4-methylbenzenesulfonamide], the EC50 in assay [1], in assay [2] and in assay [3] was below 150 nM throughout.

In the case of `CC1=C(C)C(=O)C(CCC(C)(C)O)=C(CCNC(=O)c2ccccc2)C1=O` [N-(2-(2-(3-hydroxy-3-methylbutyl)-4,5-dimethyl-3,6-dioxocyclohexa-1,4-dienyl)ethyl)-benzamide], the EC50 in assay [1], in assay [2] and in assay [3] was below 150 nM in each case.

For the compound `CC1=C(C)C(=O)C(CCC(C)(C)O)=C(CCNS(C)(=O)=O)C1=O` [N-(2-(2-(3-hydroxy-3-methylbutyl)-4,5-dimethyl-3,6-dioxocyclohexa-1,4-dienyl)ethyl)methanesulfonamide], the EC50 in assay [1], in assay [2] and in assay [3] was below 150 nM in each case.

Consider `CC1=C(C)C(=O)C(CCCC(=O)NCCc2ccccn2)=C(C)C1=O` [N-(2-(pyridin-2-yl)ethyl)-4-(2,4,5-trimethyl-3,6-dioxocyclohexa-1,4-dienyl)butanamide], for which the EC50 in assay [1] and in assay [2] was below 150 nM throughout.

As for `CC1=C(C)C(=O)C(CCCC(=O)NCCc2ccncc2)=C(C)C1=O` [N-(2-(pyridin-4-yl)ethyl)-4-(2,4,5-trimethyl-3,6-dioxocyclohexa-1,4-dienyl)butanamide], the EC50 in assay [1], in assay [2] and in assay [3] was below 150 nM each time.

As to `CC1=C(C)C(=O)C(CCCC(=O)Nc2ccccc2N)=C(C)C1=O` [N-(2-aminophenyl)-4-(2,4,5-trimethyl-3,6-dioxocyclohexa-1,4-dienyl)butanamide], the EC50 in assay [1], in assay [2] and in assay [3] was below 150 nM each time.

In the case of `CC1=C(C)C(=O)C(CCCC(=O)Nc2ccccc2C#N)=C(C)C1=O` [N-(2-cyanophenyl)-4-(2,4,5-trimethyl-3,6-dioxocyclohexa-1,4-dienyl)butanamide], the EC50 in assay [1], in assay [2] and in assay [3] was below 150 nM throughout.

Source of the values: patent US9090576B2, “2-substituted-p-quinone derivatives for treatment of oxidative stress diseases” (Edison Pharmaceuticals, Inc., priority 2008, dated 2015).
